Test results as given in publication PMC8618356, “Optimization, Characterization and Pharmacokinetic Study of Meso-Tetraphenylporphyrin Metal Complex-Loaded PLGA Nanoparticles” (International Journal of Molecular Sciences, 2021).
Read-outs that look alike come from different tables or passages of the source.

Key:
[1] = MeP loading content and encapsulation efficiency of PLGA NPs (spectrophotometry); format: physicochemical; settings: optimized MeP-loaded PLGA NPs; for MeP loading content (LC): observed data
Method: EE and LC calculation is a critical stage in NP analysis, evaluating the MeP amount in NPs’ core. The EE of MeP was determined by dissolving 4 mg of NPs in 4 mL of distilled water followed by centrifugation at 5000× g for 3 min and subsequent lyophilization. The optical density of the sediment and supernatant was assessed at 465 nm for MnClTPP, 433 nm for NiTPP, and 428 nm for CoTPP. The entrapment efficiency of MeP (EE) was calculated according to Equation (9):(9) EE (%)=The mass of MeP in the nanoparticles, mg/The mass of the nanoparticles weight, mg ∗100%
MeP LC corresponded to the optical density of 4 mg of lyophilized NPs in 4 mL of DMSO. Subsequent absorption analysis was performed as indicated earlier and LC calculated according to the following Equation (10): (10) LC (%) = Absorbance∗VDMSO/ε∗msample∗100% where VDMSO is the total volume of suspension containing NPs (L), ε is the extinction coefficient of MeP in DMSO (ε = 116,280 M^−1 cm^−1 for MnClTPP, ε = 36,797 M^−1 cm^−1 for NiTPP, ε = 87,448 M^−1 cm^−1 for CoTPP), and msample is the NPs mass (g).

[2] = In vitro release study of MeP-loaded NPs in PBS pH 7.4 with 0.1% Tween 80; format: physicochemical; settings: for release rate constant kк (Korsmeyer–Peppas model) / release exponent n (Korsmeyer–Peppas model): MeP release from MeP-loaded PLGA NPs; for release rate constant kк (Korsmeyer–Peppas model): PBS pH 7.4, 0.1% Tween 80, 37 °C; for release exponent n (Korsmeyer–Peppas model): less than 0.43 = Fickian diffusion; for duration of the fast (rapid) release phase: biphasic release from MeP-loaded NPs
Text: We analyzed the release according to the method of Abouelmag et al. using a phosphate-buffered saline (PBS) pH 7.4 containing 0.1% Tween 80 (Figure 8) as a release medium.
We determined the MeP release mechanisms by fitting the data obtained by applying several release kinetic models (Table 7). […] The release exponent values were n = 0.01 for NiTPP, n = 0.06 for CoTPP, and n = 0.11 for MnClTPP, and less than 0.43, indicating Fickian diffusion of MeP [92].
The time-dependent release of MeP was analyzed by dissolving 3 mg of NPs in 1 mL of PBS (0.01 M, pH 7.4) and incubation in a dark glass bottle containing 40 mL of PBS (0.01 M, pH 7.4) and 0.1% (w/v) Tween 80 solution. The probes were kept on a shaker incubator at 90 rpm and 37 °C. Aliquots of 1 mL of media were taken at 0, 0.25, 0.5, 0.75, 1, 1.5, 2, 3, 4, 24, 48, 72, 120, 144, and 192 h and replenished with 1 mL of fresh PBS. The collected aliquots were centrifuged for 3 min at 5000× g at 37 °C. The supernatants were removed and lyophilized as well as the sediments. The amount of MeP released at each time point was calculated as described above according to optical absorption.

BALB/c female mice = test: Acute toxicity analysis; format: in vivo; settings: i.v. tail vein, 24 h
Method: All experimental procedures with animals (mice and rats) were performed according to the University Ethics Committee for the use of experimental animals and animal studies were carried out as per the guidelines of the European Medicines Agency, Amsterdam, the Netherlands.
MeP and MeP-NP acute toxicity analysis was accomplished using randomly divided mice groups (n = 3). The samples were diluted in PBS and injected (200 μL) via the lateral tail vein. Due to poor water solubility, MePs were preliminarily dissolved in DMSO and Tween 80: the final solution represented 5% v/v DMSO and 2% Tween 80 v/v in PBS. Survival was registered for 24 h after injection.

[3] = rat, in vivo, iv
Method: The MeP and MeP-NPs were administered via the lateral tail vein at tahe dose of 12.5 (NiTPP, CoTPP, and corresponding NPs at the equivalent dose) and 6.3 mg/kg (MnClTPP and MnClTPP-NPs at the equivalent dose).
Female Wistar rats (body weight 220–240 g) were supplied by Stolbovaya animal facility (Branch of the Scientific Center of Biomedical Technologies of the Federal Medical Biological Agency (Moscow, Russia)). The animals were kept under controlled conditions (temperature of 22 ± 2 °C and relative humidity of 50 ± 10%) with free access to water and standard pellet feed.
The MeP and MeP-NPs pharmacokinetics study was accomplished using randomly divided rat groups (n = 3). Blood samples (50 μL) were collected before injection and after at different time points: 0.25, 0.50, 1.0, 3.0, 6.0, 24.0, and 48.0 h. The blood samples were diluted to 1.0 mL and analyzed with ICP-MS (Agilent 7500C, Agilent Technologies, Tokyo, Japan) [112]. The sample introduction system consisted of a robust Babington nebulizer with a Scott spray chamber (Agilent Technologies, Tokyo, Japan) cooled by a Peltier element (2 °C). The data were acquired and processed with the ICP-MS ChemStation (Agilent Technologies, version G1834B; Santa Clara, CA, USA) software package. The internal standard method was applied in order to take into account the effect of the matrix; Rh was used as internal standard. For dilution of the whole blood samples and standard solution, the mixture of 0.1% Triton X-100–1% HNO3 was used. The same solution was used as the mobile phase of the mass spectrometer.
The pharmacokinetic parameters of MeP were estimated using standard non-compartmental methods [113]. The volume of distribution (Vd), mean residence time (MRT), elimination half-life (t1/2), and area under the plasma concentration–time curve from 0 h to infinity (AUCinf) were determined after intravenous administration of MeP-loaded NPs to animals. All calculations were performed using the PKSolver add-in program for Microsoft Excel [114].

[4] = In vitro release study of MeP-loaded NPs in PBS pH 7.4 with 0.1% Tween 80; format: physicochemical; settings: after 180 h
[5] = system: HeLa, MCF-7, and SK-OV-3 cells; test: Cytotoxicity, MTT assay; format: cell-based, human; settings: all examined cell lines, 72 h
Method: The cancer cell lines HeLa (human cervical carcinoma), MCF-7 (human breast adenocarcinoma), and SK-OV-3 (human ovarian carcinoma) were purchased from the American Type Culture Collection (ATCC, Manassas, VA, USA). Cells were maintained in DMEM medium supplemented with 10% fetal bovine serum and gentamycin (50 μg/mL). Cells were maintained in plastic 25 cm^2 cell culture flasks at 37 °C in a humidified atmosphere containing 5% CO2. HeLa, MCF-7, and SK-OV-3 cells were plated before reaching 80% confluence using trypsin/EDTA solution.
MCF-7, SK-OV-3, and HeLa cells were plated in 96-well plates (5000 cells per well) one day before the experiment and incubated under standard conditions. MeP and MeP-NPs were added in triplets in the concentration range 0.125–100 μM (according to the MeP concentration) and incubated for 2 h. To determine cytotoxicity, cells were treated with AA alone or in combination with MeP in a molar ratio of 1:20 to MeP and then incubated for 72 h. Cell survival was determined using the standard MTT assay. Cell viability was determined as the percent of untreated control. Mean survival values were calculated in Excel (Microsoft Corporation, Redmond, Washington, DC, USA)) and data visualization was performed in OriginPro (version 2020b, OriginLab Corp., Northampton, MA, USA).

Row | SMILES | encapsulation efficiency (EE) [1] | MeP loading content (LC) [1] | release rate constant kк (Korsmeyer–Peppas model) [2] | release exponent n (Korsmeyer–Peppas model) [2] | duration of the fast (rapid) release phase [2] | Mice Survived (BALB/c female mice; 6.25 mg/kg) | Mice Survived (BALB/c female mice; 12.5 mg/kg) | Mice Survived (BALB/c female mice; 25 mg/kg) | Mice Survived (BALB/c female mice; 50 mg/kg) | AUCinf ([3]; 6.3 mg/kg) | MRT ([3]; 6.3 mg/kg) | Vd ([3]; 6.3 mg/kg) | t1/2 ([3]; 6.3 mg/kg) | MeP released from NPs [4] | AUCinf ([3]; 12.5 mg/kg) | MRT ([3]; 12.5 mg/kg) | Vd ([3]; 12.5 mg/kg) | t1/2 ([3]; 12.5 mg/kg) | cytotoxicity alone, without combination (in words) [5]
1 | C1=Cc2nc1c(-c1ccccc1)c1ccc([n-]1)c(-c1ccccc1)c1nc(c(-c3ccccc3)c3ccc([n-]3)c2-c2ccccc2)C=C1.[Cl-].[Mn+3] [MnClTPP, MnCl3-tetraphenylporphyrin chloride] | 79.9% | 28.9% | 49.4 h⁻¹ | 0.11 | 15 min | 3/3 | 3/3 | 3/3 | 2/3 | 15,362 ± 5377 (µg/mL) (h) | 62 ± 21 h | 0.013 ± 0.004 L/kg | 44 ± 14 h | 80% |  |  |  |  | 
2 | C1=Cc2nc1c(-c1ccccc1)c1ccc([n-]1)c(-c1ccccc1)c1nc(c(-c3ccccc3)c3ccc([n-]3)c2-c2ccccc2)C=C1.[Co+2] [CoTPP] | 79.7% | 8.7% | 74.3 h⁻¹ | 0.06 | 30 min | 3/3 | 3/3 | 2/3 | 0/3 |  |  |  |  |  | 60,370 ± 18,111 (µg/mL) (h) | 27 ± 7 h | 0.003 ± 0.001 L/kg | 17 ± 4 h | 
3 | C1=Cc2nc1c(-c1ccccc1)c1ccc([n-]1)c(-c1ccccc1)c1nc(c(-c3ccccc3)c3ccc([n-]3)c2-c2ccccc2)C=C1.[Ni+2] [NiTPP] |  | 11.1% | 91.3 h⁻¹ | 0.01 | 30 min | 3/3 | 3/3 | 1/3 | 0/3 |  |  |  |  |  | 612 ± 184 (µg/mL) (h) | 25 ± 6 h | 2.683 ± 0.805 L/kg | 19 ± 6 h | 
4 | O=C1O[C@H]([C@@H](O)CO)C(O)=C1O [AA, ascorbic acid] |  |  |  |  |  |  |  |  |  |  |  |  |  |  |  |  |  |  | lacked cell growth inhibition
